Assay results taken from patent US20250136556A1, “NOVEL MODULATORS OF THE ARYL HYDROCARBON RECEPTOR AND METHODS OF USE THEREOF” (Allianthera (Suzhou) Biopharmaceutical Co., Ltd., priority 2021, published 2025).
Where two headings read alike, the source gives them in different places.

How the values were obtained:
[1] = biological target: T1, Human Aryl Hydrocarbon Receptor (AHR) (Homo sapiens, UniProt P35869); experiment: AHR agonist reporter assay in human cell line (INDIGO luciferase reporter); format: cell-based; details: reporter cells; for EC50: 24 hours incubation; for AHR % activation to Tapinarof at 1 μM: 24 hours, value in brackets;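 on all read-outs here: firefly luciferase luminescence read on a plate reader, values normalized against positive and negative controls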
T1 construct: purchased INDIGO Bioscience IB06001-32; host or cells: AHR Reporter Cell (proprietary kit cells)
T1 sequence (P35869 11-848): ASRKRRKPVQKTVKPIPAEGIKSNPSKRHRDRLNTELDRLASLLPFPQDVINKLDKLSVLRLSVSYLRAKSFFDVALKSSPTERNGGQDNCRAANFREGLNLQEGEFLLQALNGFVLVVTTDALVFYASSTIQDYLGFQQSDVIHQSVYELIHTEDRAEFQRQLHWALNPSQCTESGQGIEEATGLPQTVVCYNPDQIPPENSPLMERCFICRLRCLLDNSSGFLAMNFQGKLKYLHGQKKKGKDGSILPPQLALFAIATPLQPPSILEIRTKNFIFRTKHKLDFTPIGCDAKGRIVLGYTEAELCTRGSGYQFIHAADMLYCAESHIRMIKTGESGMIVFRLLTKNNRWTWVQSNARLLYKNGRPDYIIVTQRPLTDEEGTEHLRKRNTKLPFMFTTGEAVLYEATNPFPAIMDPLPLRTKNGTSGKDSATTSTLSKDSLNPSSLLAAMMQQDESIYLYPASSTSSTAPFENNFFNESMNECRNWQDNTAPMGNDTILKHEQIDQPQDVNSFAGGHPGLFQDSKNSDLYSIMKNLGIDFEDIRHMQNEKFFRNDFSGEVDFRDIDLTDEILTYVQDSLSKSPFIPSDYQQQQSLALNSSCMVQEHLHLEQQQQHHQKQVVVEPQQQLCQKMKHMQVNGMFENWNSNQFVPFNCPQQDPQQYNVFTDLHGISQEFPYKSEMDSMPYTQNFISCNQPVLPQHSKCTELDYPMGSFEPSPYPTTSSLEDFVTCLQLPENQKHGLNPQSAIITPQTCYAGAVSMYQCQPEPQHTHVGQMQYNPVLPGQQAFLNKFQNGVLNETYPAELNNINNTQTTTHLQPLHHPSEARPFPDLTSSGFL
Procedure: The AHR reporter assay was performed following the protocol of the Human Aryl Hydrocarbon Receptor (AHR) Reporter Assay System (INDIGO Bioscience, #IB06001-32). AHR Reporter Cell was thawed and pre-incubated in Cell Recovery Medium (CRM) for 6 hours. […] Following 24 hours incubation, the media was removed and Luciferase Detection Reagent (LDR) added. The firefly luciferase activity was quantified using a plate reader. Results were normalized by positive and negative controls.

[2] = test system: Human Nuclear Factor (erythroid-derived2)-like 2 (Nrf2); experiment: Nrf2 transcription factor activity reporter assay in human cell line (INDIGO luciferase reporter); format: cell-based; details: reporter cells; for EC50: 24 hours incubation; for Nrf2 % activation to Tapinarof at 9 μM: 24 hours, value in brackets
Procedure: The Nrf2 reporter assay was performed following the protocol of the Human Nuclear Factor (erythroid-derived2)-like 2 (Nrf2) Reporter Assay System (INDIGO Bioscience, #IB10001). Nrf2 Reporter Cell was thawed and pre-incubated in Cell Recovery Medium (CRM) for 6 hours. The media was then removed and the cells were incubated with Compound Screening Medium (CSM) in the absence (negative control) or presence of increasing concentrations of test compounds (typical dilution: 128 pM, 640 pM, 3.2 nM, 16 nM, 80 nM, 400 nM, […] in duplicates) for 24 hours. For positive control, cells activated with CDDO or Nrf2 agonists described in literature. Following 24 hours incubation, the media was removed and Luciferase Detection Reagent (LDR) added. The firefly luciferase activity was quantified using a plate reader. Results were normalized by positive and negative controls.

[3] = test system: IL-6 gene expression in human primary M1 macrophage cells; experiment: AHR-regulated IL-6 inhibition in human primary M1 macrophage (qPCR); format: cell-based; details: LPS/IFN-gamma/GM-CSF, 24 hours; for IC50: read-out: M1 assay IL6 -IC50
Procedure: Human M1 macrophage was differentiated from PBMC. Briefly, at day 1, monocytes were isolated from human PBMC using EasySe Human Monocyte Enrichment Kit without CD16 Depletion (Stemcell, 19058). The isolated monocytes were seeded at 3×10^7 cells in 15 cm dish using 30 ml medium containing 50 ng/ml GM-CSF (R&D, 215-GM-050/CF). At day 5, 30 ml fresh medium containing 50 ng/ml GM-CSF was added. At day 8, 1.5×10^5 cells/well were re-seeded into 24 wells plate, and 500 ul medium containing 10 ng/ml LPS (Sigma, L7770), 20 ng/ml IFN-gamma (PeproTech, 300-02), 50 ng/ml GM-CSF and the test compounds was added. […] The IL-6 expression was inhibited with AHR agonists described in literature as the positive inhibition control, alternatively the un-stimulated cells were used as the negative inhibition control. […] The primers for human GAPDH (F: […]; R: […]) and human IL-6 (F: […]; R: […]) were used to analyze fold expression of IL-6 of GAPDH by quantitative PCR.

[4] = test system: AHR-regulated gene CYP1A1; experiment: AHR-regulated CYP1A1 expression in human monocytic U937 cell line (qPCR); details: U937 cells, 16 hours, CYP1A1 relative to GAPDH
Procedure: To evaluate the AHR agonist activity of the test compounds, quantitative PCR analysis was used to determine expression level of the AHR-regulated gene CYP1A1 in a human monocytic U937 cell line. U937 cells were seeded at a concentration of 5×10^5 cells/well in 200 μL of growth medium in 96-well cell culture microplates. CYP1A1 expression was induced with AHR agonists described in literature as a positive control or the test compounds for 16 hours. […] Unstimulated cells were used as the negative control. Taqman probes for human CYP1A1 (Hs01054797_g1) and human GAPDH (Hs02786624_g1) were used to analyze fold expression of CYP1A1 of GAPDH.

[5] = second line of cell, read-out: AHR abEC50
[6] = second line of cell, read-out: Nrf2 EC50, second line of cell (head does not name it)
[7] = first line of cell, read-out: AHR reEC50
[8] = first line of cell, read-out: Nrf2 reEC50

Row | SMILES | EC50 [1, 5] [nM] | EC50 [2, 6] [nM] | EC50 [1, 7] [nM] | AHR % activation to Tapinarof at 1 μM [1] [%] | EC50 [2, 8] [nM] | CYP1A1 (% activation to Tapinarof at 1 μM) [4] [%] | M1 assay IL6 -max % inhibition (% to no treatment) [3] [%] | IC50 [3] [nM] | Nrf2 % activation to Tapinarof at 9 μM [2] [%]
1 | CC(C)c1ncc(/C=C/c2ccccc2F)cc1O [Compound 112, 5-[(E)-2-(2-fluorophenyl)ethenyl]-2-isopropylpyridin-3-ol] | 99 | 97 |  |  |  |  | 77.90 | 1.57 | 
2 | CC(C)c1ncc(/C=C/c2cccc(F)c2)cc1O [Compound 113, (E)-5-(3-fluorostyryl)-2-isopropylpyridin-3-ol] | 298 |  |  |  |  |  | 67.80 | 120 | 
3 | CC(C)c1ncc(-c2ccc3ccccc3n2)cc1O [Compound 98] | 403 | 139 | 176000 | 71.2 | 40 | 83.6 |  |  | 83.6
4 | CC(C)c1ncc(-c2ccc3ccccc3n2)cc1N [Compound 119, 2-isopropyl-5-(quinolin-2-yl)pyridin-3-amine] |  | 129 | 66 | 16.4 | 125 | 0.4 |  |  | 97.8
5 | COc1cc(-c2nc3ccccc3o2)cc(O)c1C(C)C [Compound 122, 5-(benzo[d]oxazol-2-yl)-2-isopropyl-3-methoxyphenol] | 395 |  | 254 | 64.4 | 2640 | 39.3 |  |  | 25.7
6 | CC(C)c1ncc(-c2nc3ccccc3o2)cc1O [Compound 100] | > 1000 | 890 | 21.9 | 49.7 | 200 | 90.5 |  |  | 62.3
7 | CC(C)c1ncc(-c2cc3ccccc3cn2)cc1O [Compound 97] | 569 | 501 | 1620 | 62.6 | 249 | 78.9 |  |  | 67.2
8 | CC(C)c1ncc(/C=C/c2ccccc2)cc1O [Compound 103, (E)-2-isopropyl-5-styrylpyridine-3-ol] | 241 | 149 | 166 | 69.5 | 70.8 | 34.0 | 84.90 | 92.6 | 78.8
9 | CC(C)c1c(O)cc(-c2cc(F)c3cnc(N)nc3c2)cc1F [Compound 149] |  |  |  |  |  |  | 91.10 | 0.5 | 
10 | CC(C)c1c(O)cc(-c2cc(F)c3ncccc3c2)cc1F [Compound 145] |  |  |  |  |  |  | 94.10 | 1.9 | 
11 | CC(C)c1c(O)cc(-c2ccc3cc(F)ccc3n2)cc1F [Compound 143] |  |  |  |  |  |  | 91.80 | 2.7 | 
12 | CC(C)c1c(O)cc(/C=C/c2ccccc2)cc1O [Tapinarof, reference compound] |  |  |  | 100 | 55 to 75 | 100 |  |  | 

Continued, in another order:

Row | EC50 [1, 5] [nM] | EC50 [2, 6] [nM] | EC50 [1, 7] [nM] | AHR % activation to Tapinarof at 1 μM [1] [%] | EC50 [2, 8] [nM] | CYP1A1 (% activation to Tapinarof at 1 μM) [4] [%] | SMILES | M1 assay IL6 -max % inhibition (% to no treatment) [3] [%] | IC50 [3] [nM] | Nrf2 % activation to Tapinarof at 9 μM [2] [%]
13 | 57.5 | 29.6 | 64.3 | 69.5 | 14.5 | 78.4 | CC(C)c1c(O)cc(-c2cnc3ccccc3c2)cc1O [Compound 48] | 89.60 | 3 | 84.4
14 | 3.58 |  |  |  |  |  | CC(C)c1c(O)cc(-c2cc(F)c3cnc(N)nc3c2)cc1O [Compound 39] | 89.60 | 0.2 | 
15 | 39 | 166 | 72.7 | 95.8 | 16.3 | 95.3 | CC(C)c1c(O)cc(-c2cc3ccccc3cn2)cc1O [Compound 46] |  |  | 69.3
16 | 38.6 |  |  |  |  |  | CC(C)c1c(O)cc(/C=C/c2ccccc2)cc1F [Compound 135] | 95.30 | 1.7 | 
17 | 11.5 |  |  |  |  |  | CCCc1c(O)cc(/C=C/c2ccccc2)cc1F [Compound 125, 3-fluoro-5-[(E)-2-phenylethenyl]-2-propylphenol] | 91.70 | 1.35 | 
18 | 2.12 |  |  |  |  |  | Cc1ccnc2cc(-c3cc(O)c(C(C)C)c(O)c3)ccc12 [Compound 22] | 77.20 | 0.05 | 
19 | 53.4 | 73.7 | 38100 | 104.6 | 34.9 | 95.6 | CC(C)c1c(O)cc(-c2nc3ccccc3o2)cc1O [Compound 49] | 90.30 | 3.14 | 69.7
